According to patent publication US8501781B2 (priority 2009, dated 2013):
Marks after values point to notes of the source that are not given here.

Test: logP by HPLC (EEC Directive 79/831 Annex V.A8)
Type: physicochemical
Conditions: for chromatographic logP: pH 2.7, given in the preparation examples, read-out: log P (pH 2.7)
[1] = [b] LC-MS, acidic range, pH 2.7, 0.1% aqueous formic acid and acetonitrile
[2] = [c] LC-MS, neutral range, pH 7.8, 0.001 molar aqueous ammonium bicarbonate and acetonitrile

Structure (SMILES) | logP [1] | logP [2] | also measured
O=C(OC1CCCCC1)c1csc(C2CCN(C(=O)Cc3cc(Cl)ccc3Cl)CC2)n1 [Example 14] | 4.49^[b] |  | 
Cc1cc(C(F)(F)F)nn1CC(=O)N1CCN(c2nc(C(=O)OCc3ccccc3Cl)cs2)CC1 [Example 48] | 3.64^[c]; 3.64^[b] | 3.64^[c]; 3.64^[b] | 
Cn1nc(C(F)(F)F)cc1OC(=O)N1CCC(c2nc(C(=O)OC3CCCCC3)cs2)CC1 [Example 109] | 4.36 | 4.37 | 
O=C(OCc1ccccc1Br)c1csc(C2CCN(C(=O)Nc3cc(C(F)(F)F)ccc3Cl)CC2)n1 [Example 106] | 4.7 | 4.75 | 
Cc1ccc(C)c(NC(=O)N2CCC(c3nc(C(=O)Oc4c(Br)cccc4Br)cs3)CC2)c1 [Example 144] | 3.93^[b] |  | 
Cc1cc(C(F)(F)F)nn1CC(=O)N1CCN(c2nc(C(=O)Oc3cccc4cccnc34)cs2)CC1 [Example 36] | 2.85 | 2.83 | 
Cc1cc(CC(=O)N2CCC(c3nc(C(=O)OC4CCCCC4)cs3)CC2)nn1C [Example 89] | 2.66 | 2.68 | 
Cc1ccc(Cl)c(NC(=O)N2CCC(c3nc(C(=O)OC4CCCc5ccccc54)cs3)CC2)c1 (stereo not drawn) [Example 100] | 4.61^[b] |  | 
Cc1cc(C(F)(F)F)nn1CC(=O)N1CCN(c2nc(C(=O)OC3CCCc4ccccc43)cs2)CC1 (stereo not drawn) [Example 43] | 3.98 | 3.91 | 
Cc1cc(C(F)(F)F)nn1CC(=O)N1CCN(c2nc(C(=O)SCc3ccccc3Cl)cs2)CC1 [Example 49] | 4.29 | 4.32 | 
Cc1ccc(C)c(NC(=O)N2CCC(c3nc(C(=O)OCc4ccccc4F)cs3)CC2)c1 [Example 140] | 3.39^[b] |  | 
O=C(Oc1cccc2ccccc12)c1csc(C2CCN(C(=O)Cc3ccsc3)CC2)n1 [Example 7] | 3.46^[b] |  | 
Cc1oc(-c2ccccc2)nc1CC(=O)N1CCC(c2nc(C(=O)Oc3cccc4ccccc34)cs2)CC1 [Example 24] | 4.04^[b] |  | 
Cc1ccc(C)c(NC(=O)N2CCC(c3nc(C(=O)OC(C)c4ccccc4F)cs3)CC2)c1 (stereo not drawn) [Example 153] | 3.71^[b] |  | 
Cc1cc(C(F)(F)F)nn1CC(=O)N1CCN(c2nc(C(=O)OC(C)C3CCCCC3)cs2)CC1 (stereo not drawn) [Example 54] | 4.4 | 4.46 | 
O=C(OC1CCCCC1)c1csc(C2CCN(C(=O)CC3CCCC3)CC2)n1 [Example 83] | 4.15 | 4.12 | 
O=C(Oc1cccc2ccccc12)c1csc(C2CCN(C(=O)Cc3cccc(C(F)(F)F)c3)CC2)n1 [Example 1] | 4.16^[b] |  | 
O=C(OC1CCCCC1)c1csc(C2CCN(C(=O)C(=O)c3ccco3)CC2)n1 [Example 60] | 3.07^[b] |  | 
Cc1cccc(COC(=O)c2cnc(C3CCN(C(=O)Cn4nc(C(F)F)cc4C(F)F)CC3)s2)c1C [Example 177] | 4.00^[b] |  | 
Cc1cc(C(F)(F)F)nn1CC(=O)N1CCN(c2nc(C(=O)Oc3ccc4ccccc4c3)cs2)CC1 [Example 40] | 3.81 | 3.76 | 
Cc1ccc(C)c(NC(=O)N2CCC(c3nc(C(=O)O[C@@H]4CCCC[C@H]4c4ccccc4)cs3)CC2)c1 [Example 122] | 4.43^[b] |  | 
O=C(OC1CCCCC1)c1csc(C2CCN(S(=O)(=O)Cc3cc(F)ccc3F)CC2)n1 [Example 30, Cyclohexyl 2-{1-[(2,5-difluorobenzyl)sulphonyl]piperidin-4-yl}-1,3-thiazole-4-carboxylate] |  |  | chromatographic logP: 4.05

Structure (SMILES) | logP [1] | logP [2] | also measured
Cc1cc(C(F)(F)F)nn1CC(=O)N1CCN(c2nc(C(=O)OC3Cc4ccccc4C3)cs2)CC1 [Example 41] | 3.64 | 3.56 | 
O=C(OC1CCCCC1)c1csc(C2CCN(C(=O)Cc3cccc(Cl)c3)CC2)n1 [Example 9] | 4.04^[b] |  | 
Cc1ccc(Cl)cc1NC(=O)N1CCC(c2nc(C(=O)OCc3c(F)cccc3F)cs2)CC1 [Example 163] | 3.62^[b] |  | 
O=C(OC1CCCCC1)c1csc(C2CCN(C(=O)C(=O)c3cccs3)CC2)n1 [Example 55] | 3.46^[b] |  | 
COc1ccc(Cl)cc1NC(=O)N1CCC(c2nc(C(=O)OC3CCCCC3)cs2)CC1 [Example 75] | 4.35^[b] |  | 
Cc1ccc(Br)cc1CC(=O)N1CCC(c2nc(C(=O)OC3CCCCC3)cs2)CC1 [Example 17] | 4.47^[b] |  | 
O=C(OC1CCCc2ccccc21)c1csc(C2CCN(C(=O)Nc3cc(Cl)ccc3Cl)CC2)n1 (stereo not drawn) [Example 95] | 4.92^[b] |  | 
Cc1cc(C(F)(F)F)nn1CC(=O)N1CCN(c2nc(C(=O)Sc3cc(C(F)(F)F)ccc3Cl)cs2)CC1 [Example 33] | 4.51^[b] |  | 
Cc1ccc(F)cc1NC(=O)N1CCC(c2nc(C(=O)OCc3ccccc3Br)cs2)CC1 [Example 90] | 3.77 | 3.75 | 
Cc1ccc(C)c(NC(=O)N2CCC(c3nc(C(=O)Oc4c(C)cccc4Cl)cs3)CC2)c1 [Example 143] | 3.76^[b] |  | 
O=C(OCc1c(F)cccc1F)c1cnc(C2CCN(C(=O)Cn3nc(C(F)F)cc3C(F)F)CC2)s1 [Example 175] | 3.45^[b] |  | 
COc1cccc(Br)c1OC(=O)c1csc(C2CCN(C(=O)Nc3cc(C)ccc3C)CC2)n1 [Example 142] | 3.56^[b] |  | 
O=C(Oc1cccc2ccccc12)c1csc(C2CCN(C(=O)Cc3cc(C(F)(F)F)ccc3Cl)CC2)n1 [Example 11] | 4.56^[b] |  | 
Cc1ccc(Cl)cc1NC(=O)N1CCC(c2nc(C(=O)OC3CCCCC3)cs2)CC1 [Example 72] | 4.10^[b] |  | 
Cn1ncc(CC(=O)N2CCC(c3nc(C(=O)Oc4cccc5ccccc45)cs3)CC2)c1Cl [Example 5] | 3.00^[b] |  | 
Cc1cc(CC(=O)N2CCC(c3nc(C(=O)OC4CCCCC4)cs3)CC2)c(C)s1 [Example 20] | 4.24^[b] |  | 
Cc1ccc(C)c(NC(=O)N2CCC(c3nc(C(=O)OCc4ccncc4Cl)cs3)CC2)c1 [Example 139] | 2.77^[b] |  | 
Cc1ccc(Cl)cc1NC(=O)N1CCC(c2nc(C(=O)OCc3ccccc3Br)cs2)CC1 [Example 85] | 4.04 | 4.06 | 
O=C(OC1CCCCC1)c1csc(C2CCN(C(=O)Cc3cc(Br)ccc3Br)CC2)n1 [Example 15, Cyclohexyl 2-{1-[(2,5-dibromophenyl)acetyl]piperidin-4-yl}-1,3-thiazole-4-carboxylate] |  |  | chromatographic logP: 4.72
O=C(OCc1ccccc1Br)c1csc(C2CCN(C(=S)Nc3cc(Cl)ccc3Cl)CC2)n1 [Example 113] | 4.4 | 4.39 | 
Cc1ccc(CC(=O)N2CCC(c3nc(C(=O)OC4CCCCC4)cs3)CC2)c(C)c1 [Example 66] | 4.3 | 4.33 | 
O=C(OC1CCCCC1)c1csc(C2CCN(C(=O)CC3CCCC(C(F)(F)F)C3)CC2)n1 (stereo not drawn) [Example 56] | 4.58^[b] |  | 

Structure (SMILES) | logP [1] | logP [2] | also measured
Cc1cc(C(F)(F)F)nn1CC(=O)N1CCN(c2nc(C(=O)Oc3ccc(Cl)cc3Cl)cs2)CC1 [Example 37] | 3.96 | 3.87 | 
Cc1ccc(C)c(NC(=O)N2CCC(c3nc(C(=O)Oc4ccccc4Cl)cs3)CC2)c1 [Example 148] | 3.51^[b] |  | 
Cc1noc(C)c1NC(=O)N1CCC(c2nc(C(=O)OC3CCCc4ccccc43)cs2)CC1 (stereo not drawn) [Example 98] | 2.97^[b] |  | 
COCCOCC(=O)N1CCC(c2nc(C(=O)OC3CCCCC3)cs2)CC1 [Example 174] |  |  | logP ([a] acidic range, pH 2.3, 0.1% aqueous phosphoric acid and acetonitrile): 2.37^[a]
Cc1ccc(F)c(NC(=O)N2CCC(c3nc(C(=O)OC4CCCCC4)cs3)CC2)c1 [Example 64] | 3.81^[b] |  | 
Cc1noc(C)c1NC(=S)N1CCC(c2nc(C(=O)OC3CCCCC3)cs2)CC1 [Example 73] | 3.18^[b] |  | 
O=C(Oc1cccc2ccccc12)c1csc(C2CCN(C(=O)Cc3cccc(Cl)c3)CC2)n1 [Example 10] | 4.01^[b] |  | 
Cc1ccc(Cl)cc1NC(=O)N1CCC(c2nc(C(=O)OCc3c(F)cccc3Cl)cs2)CC1 [Example 161] | 3.89^[b] |  | 
Cc1cc(CC(=O)N2CCC(c3nc(C(=O)OC4CCCCC4)cs3)CC2)n(C)n1 [Example 86] | 2.6 | 2.67 | 
Cc1cc(C(F)(F)F)nn1CC(=O)N1CCN(c2nc(C(=O)OC3CCCC(C(F)(F)F)C3)cs2)CC1 (stereo not drawn) [Example 32] |  | 3.81^[c] | 
O=C(OCc1ccccc1Br)c1csc(C2CCN(C(=S)Nc3cc(F)ccc3Br)CC2)n1 [Example 114] | 4.04 | 4.02 | 
CC(C)(C)OC(=O)N1CCC(c2nc(C(=O)O)cs2)CC1 [XXXI-1, 2-[1-(tert-Butoxycarbonyl)piperidin-4-yl]-1,3-thiazole-4-carboxylic acid] |  |  | chromatographic logP: 2.04
Cc1ccc(C)c(NC(=O)N2CCC(c3nc(C(=O)O[C@H]4CCCC[C@@H]4c4ccccc4)cs3)CC2)c1 [Example 123] | 4.42^[b] |  | 
O=C(OC1CCCCC1)c1csc(C2CCN(C(=O)Cc3ccsc3)CC2)n1 [Example 8] | 3.42^[b] |  | 
COc1cccc(F)c1C(C)OC(=O)c1csc(C2CCN(C(=O)Nc3cc(C)ccc3C)CC2)n1 (stereo not drawn) [Example 138] | 3.79^[b] |  | 
Cc1cc(C(F)(F)F)nn1CC(=O)N1CCN(c2nc(C(=O)OC(C)c3cc(Cl)ccc3Cl)cs2)CC1 (stereo not drawn) [Example 31] | 4.28^[b] |  | 
Cc1ccc(C)c(NC(=O)N2CCC(F)(c3nc(C(=O)OC4CCCCC4)cs3)CC2)c1 [Example 172] | 4.15^[c]; 4.15^[b] | 4.15^[c]; 4.15^[b] | 
Cc1sc(-c2ccccc2)nc1CC(=O)N1CCC(c2nc(C(=O)OC3CCCCC3)cs2)CC1 [Example 21] | 4.57^[b] |  | 
Cc1cc(C(F)(F)F)nn1CC(=O)N1CCC(F)(c2nc(C(=O)OCc3c(F)cccc3F)cs2)CC1 [Example 165] | 3.65 | 3.67 | 
Cc1ccc(C)c(NC(=O)N2CCC(c3nc(C(=O)OC4CCCCC4)cs3)CC2)c1 [Example 59, Cyclohexyl 2-{1-[(2,5-dimethylphenyl)carbamoyl]piperidin-4-yl}-1,3-thiazole-4-carboxylate] |  |  | chromatographic logP: 3.82
O=C(OCc1ccccc1Br)c1csc(C2CCN(C(=S)Nc3cc(Cl)ccc3F)CC2)n1 [Example 115] | 4.15 | 4.14 | 
Cc1nc(CC(=O)N2CCC(c3nc(C(=O)Oc4cccc5ccccc45)cs3)CC2)c(C)s1 [Example 26] | 3.10^[b] |  | 
